Laboratory results published in US11000033B2, “Ketone or oxime compound, and herbicide” (NISSAN CHEMICAL CORPORATION, priority 2014, dated 2021).

Tests used:
Type in all cases: in vivo
Galium spurium = experiment: Test Example 5: herbicidal effect by foliage application, plastic box (symbol Q); conditions: 320 g/ha, 3 weeks after application
Outline: (§1)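 After sowing into sterilized diluvial soil and growing two weeks under glass at 25° C. to 30° C., seedlings receive a uniform foliar spray of diluted emulsion. Damage is judged visually three weeks on.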

Abutilon theophrasti = experiment: Test Example 5: herbicidal effect by foliage application, plastic box (symbol M); conditions: 320 g/ha, 3 weeks after application
Outline: as §1

Setaria viridis [1] = experiment: Test Example 5: herbicidal effect by foliage application, plastic box (symbol G); conditions: 320 g/ha, 3 weeks after application
Outline: as §1

Veronica persica = experiment: Test Example 4: herbicidal effect by soil treatment (symbol R)
Outline: (§2)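 Seeds were sown in sterilized diluvial soil, covered with about 1.5 cm of soil, and the soil surface was sprayed with a water-diluted emulsion of the compound at a predetermined rate. Plants grew in a greenhouse at 25° C. to 30° C.; effects were scored visually 3 weeks after application.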

rice plant = experiment: Test Example 5: effect on crop by foliage application, plastic box (symbol b); conditions: 320 g/ha, 3 weeks after application
Outline: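 Diluvial soil, sterilized and boxed (21 × 13 × 7 cm), received spot-sown seed covered by about 1.5 cm soil; plants were then greenhouse-grown at 25–30° C.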

rapeseed = experiment: Test Example 4: effect on crop by soil treatment (symbol g); conditions: for g: rapeseed, effect on crop grade: application herbicide amount 320 g/ha
Outline: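 The test used sterilized diluvial soil. Seed was set down in spots and overlaid with about 1.5 cm of soil before growth in a greenhouse kept at 25° C. to 30° C.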

Amaranthus retroflexus = experiment: Test Example 4: herbicidal effect by soil treatment (symbol N)
Outline: as §2

Leptochloa chinensis = experiment: Test Example 3: herbicidal effect by foliage application, Wagner pot (symbol D); conditions: application herbicide amount 320 g/ha
Outline: (§3)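 Rating at 3 weeks post-spray, by defined criteria. Treatment: emulsion diluted with water to a predetermined amount, applied evenly to foliage of 14-day-old plants raised in alluvial soil flooded 0.1–0.5 cm deep at 25–30 °C, rice co-sown.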

[2] = system: Echinochloa crus-galli var. crus-galli; experiment: Test Example 3: herbicidal effect by foliage application, Wagner pot (symbol H); conditions: application herbicide amount 320 g/ha
Outline: as §3

[3] = system: Echinochloa oryzacola Vasing.; experiment: Test Example 1: herbicidal activity, application before weed generation in submerged conditions (symbol A); conditions: application herbicide amount 320 g/ha
Outline: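 Ratings (5: ≥90%, near complete withering; 4: 70–<90%; 3: 40–<70%; 2: 20–<40%; 1: 5–<20%; 0: ≤5%) were assigned 3 weeks after the diluted emulsion was applied to the water surface of freshly sown, submerged pots.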

Digitaria ciliaris [4] = experiment: Test Example 5: herbicidal effect by foliage application, plastic box (symbol F); conditions: 320 g/ha, 3 weeks after application
Outline: as §1

Stellaria media = experiment: Test Example 5: herbicidal effect by foliage application, plastic box (symbol P); conditions: 320 g/ha, 3 weeks after application
Outline: as §1

Chenopodium album = experiment: Test Example 5: herbicidal effect by foliage application, plastic box (symbol O); conditions: 320 g/ha, 3 weeks after application
Outline: as §1

Alopecurus myosuroides = experiment: Test Example 4: herbicidal effect by soil treatment (symbol J)
Outline: as §2

Lolium multiflorum Lam. = experiment: Test Example 5: herbicidal effect by foliage application, plastic box (symbol K); conditions: 320 g/ha, 3 weeks after application
Outline: as §1

Setaria viridis [5] = experiment: Test Example 4: herbicidal effect by soil treatment (symbol G)
Outline: as §2

Digitaria ciliaris [6] = experiment: Test Example 4: herbicidal effect by soil treatment (symbol F)
Outline: as §2

Apera spica-venti = experiment: Test Example 5: herbicidal effect by foliage application, plastic box (symbol L); conditions: 320 g/ha, 3 weeks after application
Outline: as §1

Avena fatua = experiment: Test Example 4: herbicidal effect by soil treatment (symbol I)
Outline: as §2

[7] = application herbicide amount 320 g/ha

CON=C(C)CC1CC(OC(=O)N2CCN(C)CC2)=C(c2c(C)cc(C)cc2C)C1=O (stereo not shown) [1-152]
Q: Galium spurium, herbicidal effect (criteria 0-5) (Galium spurium): 0 (Herbicidal ratio of 5% or lower (almost no effect)) | M: Abutilon theophrasti, herbicidal effect (criteria 0-5) (Abutilon theophrasti): 4 (Herbicidal ratio of 70% or higher and lower than 90%) | G: Setaria viridis, herbicidal effect (criteria 0-5) (Setaria viridis [1]): 5 (Herbicidal ratio of 90% or more (almost completely withered)) | R: Veronica persica, herbicidal effect grade (Veronica persica; 320 g/ha): 0 (Herbicidal ratio of 5% or lower (almost no effect)) | b: directly sowed rice plant, effect on crop (criteria 0-5) (rice plant): 5 (Herbicidal ratio of 90% or more (almost completely withered)) | g: rapeseed, effect grade on crop (rapeseed; 320 g/ha): 0 (Herbicidal ratio of 5% or lower (almost no effect)) | N: Amaranthus retroflexus, herbicidal effect grade (Amaranthus retroflexus; 320 g/ha): 0 (Herbicidal ratio of 5% or lower (almost no effect)) | herbicidal effect on D (Leptochloa chinensis), grade 0-5 (Leptochloa chinensis): 5 (Herbicidal ratio of 90% or more (almost completely withered)) | herbicidal effect on H (Echinochloa crus-galli var. crus-galli), grade 0-5 [2]: 5 (Herbicidal ratio of 90% or more (almost completely withered)) | Herbicidal effect grade, A: Echinochloa oryzacola Vasing. [3]: 4 (Herbicidal ratio of 70% or higher and lower than 90%) | F: Digitaria ciliaris, herbicidal effect (criteria 0-5) (Digitaria ciliaris [4]): 5 (Herbicidal ratio of 90% or more (almost completely withered)) | P: Stellaria media, herbicidal effect (criteria 0-5) (Stellaria media): 0 (Herbicidal ratio of 5% or lower (almost no effect)) | O: Chenopodium album, herbicidal effect (criteria 0-5) (Chenopodium album): 0 (Herbicidal ratio of 5% or lower (almost no effect)) | J: Alopecurus myosuroides, herbicidal effect grade (Alopecurus myosuroides; 320 g/ha): 3 (Herbicidal ratio of 40% or higher and lower than 70%) | K: Lolium multiflorum Lam., herbicidal effect (criteria 0-5) (Lolium multiflorum Lam.): 5 (Herbicidal ratio of 90% or more (almost completely withered)) | G: Setaria viridis, herbicidal effect grade (Setaria viridis [5]; 320 g/ha): 0 (Herbicidal ratio of 5% or lower (almost no effect)) | F: Digitaria ciliaris, herbicidal effect grade (Digitaria ciliaris [6]; 320 g/ha): 0 (Herbicidal ratio of 5% or lower (almost no effect)) | L: Apera spica-venti, herbicidal effect (criteria 0-5) (Apera spica-venti): 5 (Herbicidal ratio of 90% or more (almost completely withered)) | I: Avena fatua, herbicidal effect grade (Avena fatua; 320 g/ha): 0 (Herbicidal ratio of 5% or lower (almost no effect))

CCOC(=O)C(C(=O)CC1CC1)C1CC(O)=C(c2c(C)cc(C)cc2C)C1=O (stereo not shown) [2-025]
Q: Galium spurium, herbicidal effect grade (Galium spurium): 0 (Herbicidal ratio of 5% or lower (almost no effect)) | M: Abutilon theophrasti, herbicidal effect grade (Abutilon theophrasti): 0 (Herbicidal ratio of 5% or lower (almost no effect)) | G: Setaria viridis, herbicidal effect grade (Setaria viridis [1]): 5 (Herbicidal ratio of 90% or more (almost completely withered)) | R: Veronica persica, herbicidal effect grade (Veronica persica; [7]): 0 (Herbicidal ratio of 5% or lower (almost no effect)) | b: directly sowed rice plant, effect on crop grade (rice plant): 4 (Herbicidal ratio of 70% or higher and lower than 90%) | g: rapeseed, effect on crop grade (rapeseed): 0 (Herbicidal ratio of 5% or lower (almost no effect)) | N: Amaranthus retroflexus, herbicidal effect grade (Amaranthus retroflexus; [7]): 0 (Herbicidal ratio of 5% or lower (almost no effect)) | herbicidal effect on D (Leptochloa chinensis), grade 0-5 (Leptochloa chinensis): 1 (Herbicidal ratio of 5% or higher and lower than 20%) | herbicidal effect on H (Echinochloa crus-galli var. crus-galli), grade 0-5 [2]: 3 (Herbicidal ratio of 40% or higher and lower than 70%) | Herbicidal effect grade, A: Echinochloa oryzacola Vasing. [3]: 3 (Herbicidal ratio of 40% or higher and lower than 70%) | F: Digitaria ciliaris, herbicidal effect grade (Digitaria ciliaris [4]): 4 (Herbicidal ratio of 70% or higher and lower than 90%) | P: Stellaria media, herbicidal effect grade (Stellaria media): 0 (Herbicidal ratio of 5% or lower (almost no effect)) | O: Chenopodium album, herbicidal effect grade (Chenopodium album): 0 (Herbicidal ratio of 5% or lower (almost no effect)) | J: Alopecurus myosuroides, herbicidal effect grade (Alopecurus myosuroides; [7]): 0 (Herbicidal ratio of 5% or lower (almost no effect)) | K: Lolium multiflorum Lam., herbicidal effect grade (Lolium multiflorum Lam.): 5 (Herbicidal ratio of 90% or more (almost completely withered)) | G: Setaria viridis, herbicidal effect grade (Setaria viridis [5]; [7]): 5 (Herbicidal ratio of 90% or more (almost completely withered)) | F: Digitaria ciliaris, herbicidal effect grade (Digitaria ciliaris [6]; [7]): 4 (Herbicidal ratio of 70% or higher and lower than 90%) | L: Apera spica-venti, herbicidal effect grade (Apera spica-venti): 3 (Herbicidal ratio of 40% or higher and lower than 70%) | I: Avena fatua, herbicidal effect grade (Avena fatua; [7]): 0 (Herbicidal ratio of 5% or lower (almost no effect))

CCc1cc(C#C[Si](C)(C)C)cc(C)c1C1=C(O)CC(CC(C)=NOC)C1=O (mixture of isomers) [6-008]
Q: Galium spurium, herbicidal effect grade (Galium spurium): 0 (Herbicidal ratio of 5% or lower (almost no effect)) | M: Abutilon theophrasti, herbicidal effect grade (Abutilon theophrasti): 0 (Herbicidal ratio of 5% or lower (almost no effect)) | G: Setaria viridis, herbicidal effect grade (Setaria viridis [1]): 5 (Herbicidal ratio of 90% or more (almost completely withered)) | R: Veronica persica, herbicidal effect grade (Veronica persica; [7]): 0 (Herbicidal ratio of 5% or lower (almost no effect)) | b: directly sowed rice plant, effect on crop grade (rice plant): 3 (Herbicidal ratio of 40% or higher and lower than 70%) | g: rapeseed, effect on crop grade (rapeseed): 0 (Herbicidal ratio of 5% or lower (almost no effect)) | N: Amaranthus retroflexus, herbicidal effect grade (Amaranthus retroflexus; [7]): 0 (Herbicidal ratio of 5% or lower (almost no effect)) | herbicidal effect on D (Leptochloa chinensis), grade 0-5 (Leptochloa chinensis): 5 (Herbicidal ratio of 90% or more (almost completely withered)) | herbicidal effect on H (Echinochloa crus-galli var. crus-galli), grade 0-5 [2]: 5 (Herbicidal ratio of 90% or more (almost completely withered)) | Herbicidal effect grade, A: Echinochloa oryzacola Vasing. [3]: 5 (Herbicidal ratio of 90% or more (almost completely withered)) | F: Digitaria ciliaris, herbicidal effect grade (Digitaria ciliaris [4]): 0 (Herbicidal ratio of 5% or lower (almost no effect)) | P: Stellaria media, herbicidal effect grade (Stellaria media): 0 (Herbicidal ratio of 5% or lower (almost no effect)) | O: Chenopodium album, herbicidal effect grade (Chenopodium album): 0 (Herbicidal ratio of 5% or lower (almost no effect)) | J: Alopecurus myosuroides, herbicidal effect grade (Alopecurus myosuroides; [7]): 4 (Herbicidal ratio of 70% or higher and lower than 90%) | K: Lolium multiflorum Lam., herbicidal effect grade (Lolium multiflorum Lam.): 3 (Herbicidal ratio of 40% or higher and lower than 70%) | G: Setaria viridis, herbicidal effect grade (Setaria viridis [5]; [7]): 5 (Herbicidal ratio of 90% or more (almost completely withered)) | F: Digitaria ciliaris, herbicidal effect grade (Digitaria ciliaris [6]; [7]): 5 (Herbicidal ratio of 90% or more (almost completely withered)) | L: Apera spica-venti, herbicidal effect grade (Apera spica-venti): 3 (Herbicidal ratio of 40% or higher and lower than 70%) | I: Avena fatua, herbicidal effect grade (Avena fatua; [7]): 4 (Herbicidal ratio of 70% or higher and lower than 90%)

CCCC(=O)CC1CC(O)=C(c2c(C)cc(C)cc2C)C1=O (stereo not shown) [2-021]
Q: Galium spurium, herbicidal effect grade (Galium spurium): 0 (Herbicidal ratio of 5% or lower (almost no effect)) | M: Abutilon theophrasti, herbicidal effect grade (Abutilon theophrasti): 0 (Herbicidal ratio of 5% or lower (almost no effect)) | G: Setaria viridis, herbicidal effect grade (Setaria viridis [1]): 4 (Herbicidal ratio of 70% or higher and lower than 90%) | R: Veronica persica, herbicidal effect grade (Veronica persica; [7]): 0 (Herbicidal ratio of 5% or lower (almost no effect)) | b: directly sowed rice plant, effect on crop grade (rice plant): 4 (Herbicidal ratio of 70% or higher and lower than 90%) | g: rapeseed, effect on crop grade (rapeseed): 1 (Herbicidal ratio of 5% or higher and lower than 20%) | N: Amaranthus retroflexus, herbicidal effect grade (Amaranthus retroflexus; [7]): 2 (Herbicidal ratio of 20% or higher and lower than 40%) | herbicidal effect on D (Leptochloa chinensis), grade 0-5 (Leptochloa chinensis): 3 (Herbicidal ratio of 40% or higher and lower than 70%) | herbicidal effect on H (Echinochloa crus-galli var. crus-galli), grade 0-5 [2]: 5 (Herbicidal ratio of 90% or more (almost completely withered)) | Herbicidal effect grade, A: Echinochloa oryzacola Vasing. [3]: 4 (Herbicidal ratio of 70% or higher and lower than 90%) | F: Digitaria ciliaris, herbicidal effect grade (Digitaria ciliaris [4]): 4 (Herbicidal ratio of 70% or higher and lower than 90%) | P: Stellaria media, herbicidal effect grade (Stellaria media): 0 (Herbicidal ratio of 5% or lower (almost no effect)) | O: Chenopodium album, herbicidal effect grade (Chenopodium album): 0 (Herbicidal ratio of 5% or lower (almost no effect)) | J: Alopecurus myosuroides, herbicidal effect grade (Alopecurus myosuroides; [7]): 5 (Herbicidal ratio of 90% or more (almost completely withered)) | K: Lolium multiflorum Lam., herbicidal effect grade (Lolium multiflorum Lam.): 5 (Herbicidal ratio of 90% or more (almost completely withered)) | G: Setaria viridis, herbicidal effect grade (Setaria viridis [5]; [7]): 5 (Herbicidal ratio of 90% or more (almost completely withered)) | F: Digitaria ciliaris, herbicidal effect grade (Digitaria ciliaris [6]; [7]): 5 (Herbicidal ratio of 90% or more (almost completely withered)) | L: Apera spica-venti, herbicidal effect grade (Apera spica-venti): 0 (Herbicidal ratio of 5% or lower (almost no effect)) | I: Avena fatua, herbicidal effect grade (Avena fatua; [7]): 0 (Herbicidal ratio of 5% or lower (almost no effect))
